Test results: ChEMBL document CHEMBL1140358, “1-Pentyl-3-phenylacetylindoles, a new class of cannabimimetic indoles” (Bioorg Med Chem Lett, 2005)

Columns and labels:
Cannabinoid receptor 2 [1] = target: T1, Cannabinoid receptor 2 (Homo sapiens, UniProt P34972); assay: Binding affinity to displace [3H]CP-55940 from cloned human CB2 receptor
Cannabinoid receptor 1 [2] = target: T2, Cannabinoid receptor 1 (Rattus norvegicus, UniProt P20272); assay: Binding affinity to displace [3H]CP-55940 from CB1 receptor of rat brain
T2 sequence (P20272 whole entry): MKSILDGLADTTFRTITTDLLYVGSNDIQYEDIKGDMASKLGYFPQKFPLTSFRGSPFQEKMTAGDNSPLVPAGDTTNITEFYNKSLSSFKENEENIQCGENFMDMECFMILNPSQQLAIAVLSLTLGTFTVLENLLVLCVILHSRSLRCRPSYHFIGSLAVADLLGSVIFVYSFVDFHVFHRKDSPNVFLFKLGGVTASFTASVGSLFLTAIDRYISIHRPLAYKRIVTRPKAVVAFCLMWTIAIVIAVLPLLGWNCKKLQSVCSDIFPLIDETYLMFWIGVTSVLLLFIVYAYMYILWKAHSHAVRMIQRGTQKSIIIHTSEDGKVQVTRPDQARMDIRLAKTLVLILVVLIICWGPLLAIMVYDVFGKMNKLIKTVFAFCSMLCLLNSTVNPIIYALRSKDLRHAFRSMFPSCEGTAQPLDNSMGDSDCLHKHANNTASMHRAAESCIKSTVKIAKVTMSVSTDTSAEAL

[3] = Ratio of the binding affinity towards CB1 receptor to that of CB2 receptor
Cannabinoid receptor 2 [4] = target: T1, Cannabinoid receptor 2; assay: Effective concentration for stimulation of [35S]GTP-gamma-S, binding at CB2 receptor in presence of 3 uM CP-55940; format: functional
Cannabinoid receptor 1 [5] = target: T2, Cannabinoid receptor 1; assay: Effective concentration for stimulation of [35S]GTP-gamma-S binding at CB1 receptor in presence of 10 uM WIN-55212-2; format: functional
Cannabinoid receptor 2 [6] = target: T1, Cannabinoid receptor 2; assay: Percent maximal effectiveness for stimulation of [35S]GTP-gamma-S, binding at CB2 receptor in presence of 3 uM CP-55940; format: functional

T1 sequence (P34972 whole entry): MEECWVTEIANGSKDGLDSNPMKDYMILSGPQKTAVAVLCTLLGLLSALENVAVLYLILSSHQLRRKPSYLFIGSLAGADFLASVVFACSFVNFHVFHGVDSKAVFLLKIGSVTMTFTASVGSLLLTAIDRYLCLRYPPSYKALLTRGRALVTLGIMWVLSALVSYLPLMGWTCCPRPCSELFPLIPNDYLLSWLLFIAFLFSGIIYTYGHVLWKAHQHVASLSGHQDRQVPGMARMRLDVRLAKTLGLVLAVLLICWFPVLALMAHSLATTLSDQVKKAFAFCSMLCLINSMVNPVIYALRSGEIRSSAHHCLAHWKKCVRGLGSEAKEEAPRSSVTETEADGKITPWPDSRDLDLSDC

| SMILES | Ki (Cannabinoid receptor 2 [1]) [nM] | Ki (Cannabinoid receptor 1 [2]) [nM] | Ratio [3] | EC50 (Cannabinoid receptor 2 [4]) [nM] | EC50 (Cannabinoid receptor 1 [5]) [nM] | Emax (Cannabinoid receptor 2 [6]) [%] |
| --- | --- | --- | --- | --- | --- | --- |
| CCCCCn1cc(C(=O)Cc2cccc(Cl)c2)c2ccccc21 | 106 | 38 | 0.36 |  |  |  |
| CCCCCn1cc(C(=O)Cc2ccc(C)cc2)c2ccccc21 | 570 | 179 | 0.31 |  |  |  |
| CCCCCn1cc(C(=O)Cc2ccc(OC)cc2)c2ccccc21 | 444 | 1060 | 2.4 |  |  |  |
| CCCCCn1c(C)c(C(=O)Cc2cccc(OC)c2)c2ccccc21 | 84 | 62 | 0.74 |  |  |  |
| CCCCCn1c(C)c(C(=O)Cc2ccccc2F)c2ccccc21 | 76 | 39 | 0.51 |  |  |  |
| CCCCCn1c(C)c(C(=O)Cc2ccccc2OC)c2ccccc21 | 82 | 25 | 0.3 |  |  |  |
| CCCCCn1c(C)c(C(=O)Cc2ccc(Cl)cc2)c2ccccc21 | 3720 | 1600 | 0.43 |  |  |  |
| CCCCCn1cc(C(=O)Cc2ccc(Br)cc2)c2ccccc21 | 657 |  | 1.6 |  |  |  |
| CCCCCn1cc(C(=O)Cc2ccccc2Cl)c2ccccc21 | 7 | 8 | 1.1 |  |  |  |
| CCCCCn1cc(C(=O)Cc2ccccc2OC)c2ccccc21 | 33 | 11 | 0.33 |  |  |  |
| CCCCCn1c(C)c(C(=O)Cc2ccc(OC)cc2)c2ccccc21 | 645 | 1680 | 2.6 |  |  |  |
| CCCCCn1cc(C(=O)Cc2cccc(OC)c2)c2ccccc21 | 89 | 17 | 0.19 | 24.4 | 29.3 | 33.5 |
| CCCCCn1c(C)c(C(=O)Cc2ccc(Br)cc2)c2ccccc21 | 2680 |  | 1.2 |  |  |  |
| CCCCCn1c(C)c(C(=O)Cc2cccc(F)c2)c2ccccc21 | 182 | 430 | 2.4 |  |  |  |
| CCCCCn1c(C)c(C(=O)Cc2ccccc2)c2ccccc21 | 180 | 124 | 0.69 |  |  |  |
| CCCCCn1cc(C(=O)Cc2ccccc2Br)c2ccccc21 | 20 | 8.4 | 0.42 |  |  |  |
| CCCCCn1cc(C(=O)Cc2cccc(F)c2)c2ccccc21 | 91 | 72 | 0.79 |  |  |  |
| CCCCCn1c(C)c(C(=O)Cc2ccccc2Br)c2ccccc21 | 29 | 15 | 0.52 |  |  |  |
| CCCCCn1cc(C(=O)Cc2ccccc2F)c2ccccc21 | 39 | 23 | 0.6 |  |  |  |
| CCCCCn1c(C)c(C(=O)Cc2ccc(C)cc2)c2ccccc21 | 1350 | 746 | 0.55 |  |  |  |
| CCCCCn1cc(C(=O)Cc2ccc(F)cc2)c2ccccc21 | 365 | 422 | 1.2 |  |  |  |
| CCCCCn1c(C)c(C(=O)Cc2ccccc2Cl)c2ccccc21 | 25 | 13 | 0.52 |  |  |  |
| CCCCCn1cc(C(=O)Cc2ccccc2C)c2ccccc21 | 146 | 29 | 0.2 | 8.3 | 29 | 47 |
| CCCCCn1cc(C(=O)Cc2ccccc2)c2ccccc21 | 159 | 90 | 0.57 |  |  |  |
| CCCCCn1c(C)c(C(=O)Cc2ccc(F)cc2)c2ccccc21 | 781 | 2860 | 3.7 |  |  |  |
| CCCCCn1cc(C(=O)Cc2ccc(Cl)cc2)c2ccccc21 | 498 | 389 | 0.78 |  |  |  |
| CCCCCn1c(C)c(C(=O)Cc2ccccc2C)c2ccccc21 | 19 | 23 | 1.2 |  |  |  |
| CCCCCn1c(C)c(C(=O)Cc2cccc(Cl)c2)c2ccccc21 | 138 | 117 | 0.85 |  |  |  |
